Data from ChEMBL document CHEMBL3045356, “Synthesis and biological evaluation of a novel class as antileishmanial agent” (Med Chem Res, 2012).
Calls of active or inactive are those of the source. The rule behind the calls is not given here.

Key:
[1] = tested on: Leishmania major; test: Antileishmanial activity against promastigote stage of Leishmania major MHOM/IL/81/FEBNI infected Swiss albino mouse assessed as decrease in cutaneous lesion progression at 20 umol administered 21 days post infection measured after 5 weeks relative to untreated mouse; format: functional, organism-based
[2] = tested on: Leishmania major; test: Antileishmanial activity against promastigote stage of Leishmania major MHOM/IL/81/FEBNI infected Swiss albino mouse assessed as inhibition of autoamputation of inoculated footpad at 20 umol administered 21 days post infection measured after 5 weeks relative to untreated mouse; format: functional, organism-based
[3] = tested on: Leishmania major; test: Antileishmanial activity against promastigote stage of Leishmania major MHOM/IL/81/FEBNI assessed as parasite motility at 10 umol measured every 10 min for 1 hr by light microscopic analysis; format: functional, organism-based
[4] = tested on: Leishmania major; test: Antileishmanial activity against promastigote stage of Leishmania major MHOM/IL/81/FEBNI infected Swiss albino mouse assessed as decrease in parasite number in cutaneous lesion at 20 umol administered 21 days post infection measured after 5 weeks by Giemsa staining; format: functional, organism-based
[5] = tested on: Leishmania major; test: Antileishmanial activity against promastigote stage of Leishmania major MHOM/IL/81/FEBNI assessed as cell viability at 10 umol measured every day for 5 days by light microscopic analysis; format: functional, organism-based
[6] = tested on: Leishmania major; test: Antileishmanial activity against promastigote stage of Leishmania major MHOM/IL/81/FEBNI infected Swiss albino mouse assessed as decrease in parasite-induced inflammatory reaction in cutaneous lesion at 20 umol administered 21 days post infection measured after 5 weeks by Giemsa staining; format: functional, organism-based
[7] = tested on: Leishmania major; test: Antileishmanial activity against promastigote stage of Leishmania major MHOM/IL/81/FEBNI infected Swiss albino mouse assessed as decrease in swelling and redness of inoculated footpad at 20 umol administered 21 days post infection measured after 5 weeks; format: functional, organism-based
[8] = tested on: Mus musculus; test: Toxicity in Mus musculus Swiss albino (mouse) infected with promastigote stage of Leishmania major MHOM/IL/81/FEBNI assessed as severe irritation of epidermis at 20 umol administered 21 days post infection measured after 5 weeks; format: organism-based; conditions: in vivo, 840 h
[9] = tested on: Leishmania major; test: Antileishmanial activity against promastigote stage of Leishmania major MHOM/IL/81/FEBNI infected Swiss albino mouse assessed as inhibition of lesion development in inoculated footpad at 20 umol administered 21 days post infection measured after 5 weeks relative to untreated mouse; format: functional, organism-based
[10] = tested on: Leishmania major; test: Antileishmanial activity against promastigote stage of Leishmania major MHOM/IL/81/FEBNI infected Swiss albino mouse assessed as inhibition of gangrene in inoculated footpad at 20 umol administered 21 days post infection measured after 5 weeks relative to untreated mouse; format: functional, organism-based
[11] = tested on: Mus musculus; test: Toxicity in Mus musculus Swiss albino (mouse) infected with promastigote stage of Leishmania major MHOM/IL/81/FEBNI assessed as deposition of haemosidrin in macrophages at 20 umol administered 21 days post infection measured after 5 weeks; format: organism-based; conditions: in vivo, 840 h
[12] = tested on: Mus musculus; test: Toxicity in Mus musculus Swiss albino (mouse) infected with promastigote stage of Leishmania major MHOM/IL/81/FEBNI assessed as vascular thrombosis at 20 umol administered 21 days post infection measured after 5 weeks; format: organism-based; conditions: in vivo, 840 h

| SMILES | Activity [1] | inhibition of footpad autoamputation (active/not active) [2] | Activity [3] | Activity [4] | Activity [5] | Activity [6] | Activity [7] | Activity [8] | inhibition [9] | inhibition [10] | Activity [11] | Activity [12] |
| --- | --- | --- | --- | --- | --- | --- | --- | --- | --- | --- | --- | --- |
| CC1=C(C(=O)NNC(=O)c2ccccc2O)C(c2ccc(N(C)C)cc2)NC(=S)N1 (stereo unspecified) | Active | Active | Active | inactive | Active | – | – | – | – | – | – | – |
| CC1=C(C(=O)N(CCCl)CCCl)C(c2cccc([N+](=O)[O-])c2)NC(=S)N1 (stereo unspecified) | – | – | Active | Active | Active | Active | Active | Non-toxic | – | – | – | – |
| CC1=C(C(=O)NNC(=O)c2ccccc2O)C(c2cccc([N+](=O)[O-])c2)NC(=O)N1 (stereo unspecified) | – | – | Active | Active | Active | Active | Active | Toxic | – | – | – | – |
| CC1=C(C(=O)N(CCO)CCO)C(c2cccc([N+](=O)[O-])c2)NC(=S)N1 (stereo unspecified) | Active | Active | Active | inactive | Active | – | – | – | – | – | – | – |
| CC1=C(C(=O)NNC(=O)c2ccccc2O)C(c2ccc(N(C)C)cc2)NC(=O)N1 (stereo unspecified) | Active | inactive | Active | inactive | Active | – | – | – | inactive | inactive | – | – |
| CC(=O)Nc1ccc(NC(=O)C2=C(C)NC(=O)NC2c2ccc(N(C)C)cc2)cc1 (stereo unspecified) | Active | Active | Active | inactive | Active | – | – | Toxic | – | – | Toxic | Toxic |
| C/C=C/C(=O)NNC(=O)C1=C(C)NC(=S)NC1c1cccc([N+](=O)[O-])c1 (stereo unspecified) | – | – | Active | Active | Active | Active | Active | Non-toxic | – | – | – | – |
| COc1cc(C2NC(=S)NC(C)=C2C(=O)NNC(=O)c2ccccc2O)cc(OC)c1OC (stereo unspecified) | Active | inactive | Active | inactive | Active | – | – | – | inactive | inactive | – | – |
| CC1=C(C(=O)NNC(=O)c2ccccc2O)C(c2cccc([N+](=O)[O-])c2)NC(=S)N1 (stereo unspecified) | – | – | Active | Active | Active | Active | Active | Toxic | – | – | – | – |
